Laboratory results from patent publication US20070059687A1, “Process for evaluating phagocytotic function and use thereof” (priority 2001, published 2007).

Assays:
[1] = test system: Staphylococcus epidermidis; experiment: Lysis evaluated by decrease in turbidity at 600 nm; assay type: cell-based; settings: for Decrease in turbidity of bacteria: lysostafin 50 unit/ml
Text: (§1) Conditions for the enzyme to lyse Staphylococcus aureus (ATCC 12600), Staphylococcus epidermidis (ATCC 14990), Pseudomonas aeruginosa (ATCC 10145), Enterococcus faecalis (ATCC 19433) and Escherichia coli (ATCC 11775) were studied. For Staphylococcus aureus and Staphylococcus epidermidis, lysostafin was used as the lytic enzyme (Bur. J. Biochem., 38, 293-300, 1973). […] Further, for Pseudomonas aeruginosa and Escherichia coli, PBS containing 70 mmol/l sodium hydroxide was used. Each type of these bacteria was inoculated in 5 ml of BHI (Brain Heart Infusion) liquid medium (manufactured by DIFCO), and cultured at 37° C. for 8 hours or longer. Thus cultured bacterial liquid was collected by centrifugation at 4° C. for 10 minutes at 2,000×g. The collected bacteria were suspended in PBS to give a sample.
Lysis was evaluated by decrease in turbidity of the bacterial liquid at the absorbance of 600 nm using a microplate reader. Consequently, Staphylococcus aureus and Staphylococcus epidermidis were lysed by lysostafin. In respect of Pseudomonas aeruginosa and Escherichia coli, no enzymatic treatment was required because lysis was conducted with PBS containing 70 mmol/l sodium hydroxide. […] Moreover, when the bacterium incorporated upon phagocytotic action is for example, Pseudomonas aeruginosa, Escherichia coli or the like, bacterial cell wall is lysed during the alkaline treatment to result in the state in which the gene is exposed. Therefore, it is not necessary to conduct this enzymatic treatment. Each enzyme for the pretreatment which is used in lysis of the foreign microorganism according to the present invention is effective not only for the aforementioned bacterial strain, but also for other bacterial strain that includes other genus staphylococcus, genus streptococcus, genus bacillus, genus micrococcus and the like. […] The results are illustrated in FIG. 3, specifically, in regard to: (a) Staphylococcus aureus and Staphylococcus epidermidis, (b) Pseudomonas aeruginosa and Escherichia coli, and (c) Enterococcus faecalis.
Enterococcus faecalis was inoculated in 50 ml of the aforementioned BHI liquid medium, and cultured at 37° C. for 8 hours or longer. This culture liquid was centrifuged at 4° C. for 10 minutes at 2,000×g to collect the bacteria, followed by subjecting to a heat treatment in an autoclave (120° C., for 10 minutes) after suspending in PBS. Next, the suspension was centrifuged at 4° C. for 10 minutes at 2,000×g, and the supernatant was discarded. Precipitates were suspended in 1 ml of PBS, and thereafter, subjected to freeze-drying. This freeze-dried sample was suspended in 5 mmol/l Tris-hydrochloric acid (pH 6.0), 2 mmol/l magnesium chloride containing 0 to 10% DMSO to give the samples for N-acetylmuramidase. Further, Micrococcus luteus (JCM1464) was inoculated in 5 ml of BHI liquid medium (supra), and cultured at 37° C. for 8 hours or longer. The cultured bacterial liquid was centrifuged at 4° C. for 10 minutes at 2,000×g to collect the bacteria. After discarding the supernatant, and suspending and washing the bacterial pellet with 5 ml of PBS, centrifugation was conducted once again at 4° C. for 10 minutes at 2,000×g to collect the bacteria. […] Enzymatic activity was evaluated on the basis of the decrease in turbidity of the sample at the absorbance of 600 nm using a microplate reader. […] Additionally, no decrease in enzymatic activity was found with DMSO at the concentration of 2% or less. […] The results are show in FIG. 4(a) to (c) and Table 3 below.

Staphylococcus aureus = experiment: Lysis evaluated by decrease in turbidity at 600 nm; assay type: cell-based; settings: FIG. 3(a)
Text: as §1, with “sample. Lysis was evaluated by decrease in turbidity of the bacterial liquid at the absorbance of 600 nm using a microplate reader. Consequently, Staphylococcus aureus and Staphylococcus epidermidis were lysed by lysostafin. In respect of Pseudomonas aeruginosa and Escherichia coli, no enzymatic treatment was required because lysis was conducted with PBS containing 70 mmol/l sodium hydroxide. […]” for “sample.”

SE digested sample = experiment: Enzymatic treatment of digested sample, bacterial bodies in leukocytes by acridine orange staining; assay type: cell-based, Staphylococcus epidermidis; set-up: key to enzymatic treatment determination: The determination was made as adequate when no bacterial body was identified in the leukocytes by the enzymatic treatment; settings: for enzymatic treatment determination: SE digested sample, once, twice, thrice
Method: (§2) Using the slide glass having each digested sample smeared thereon, the enzymatic pretreatment was performed according to the process described in Example 3. Next, the slide glass after completing the enzymatic pretreatment was placed in a humid box, and the reaction was allowed by dropping 1 ml of each enzyme solution prepared to give each titer on the smeared site of the specimen. Thereafter, the slide glass was immersed in PBS containing 0.2 mol/l hydrochloric acid, and in 70% ethanol respectively, for 10 minutes, and air dried. After immersing this slide glass in PBS containing 70 mmol/l sodium hydroxide for 3 minutes, and in 70% ethanol for 10 minutes, it was air dried and stained with 1% acridine orange staining solution. Then, evaluation was made with a fluorescence microscope (×1,000). For Staphylococcus aureus and Staphylococcus epidermidis, examination of the optimal titer was conducted with lysostafin. […] The determination was made as adequate when no bacterial body was identified in the leukocytes by the enzymatic treatment.
(§3) Using a slide glass including each digested sample smeared thereon, examination was conducted according to the process described in example 17 (2). Time period of the enzymatic treatment in this test was 30 minutes, and the temperature for examination was 4° C., 25° C., 37° C., 42° C., and 60° C.
(§4) Using the slide glass including each digested sample smeared thereon, examination was conducted according to the process described in example 17 (2). […] Determination was conducted according to the process described in example 17 (2). As a consequence, for all of Staphylococcus aureus, Staphylococcus epidermidis and Enterococcus faecalis digested samples, no bacterial body was found in the leukocytes with the time period of the enzymatic treatment of 20 minutes or longer (inadequate at 0 minute and 10 minutes). Therefore, the optimal time period of the enzymatic treatment is at least 15 minutes or longer, preferably 20 minutes or longer, and still preferably 30 minutes to 60 minutes.

SA digested sample = experiment: as above; assay type: cell-based, Staphylococcus aureus; set-up: key to enzymatic treatment determination: The determination was made as adequate when no bacterial body was identified in the leukocytes by the enzymatic treatment; settings: for enzymatic treatment determination: SA digested sample, once, twice, thrice
Method: as §2, §3, §4

Lysostafin: lytic enzyme used for Staphylococcus aureus and Staphylococcus epidermidis
lysis ([1]; FIG. 3(a)): lysed | Decrease in turbidity of bacteria ([1]; added DMSO 0 % (control)): 0.168 ± 0.017 O.D./10 minutes | Decrease in turbidity of bacteria ([1]; added DMSO 0.1 %): 0.164 ± 0.009 O.D./10 minutes | Decrease in turbidity of bacteria ([1]; added DMSO 1 %): 0.160 ± 0.008 O.D./10 minutes | Decrease in turbidity of bacteria ([1]; added DMSO 2 %): 0.145 ± 0.009 O.D./10 minutes | Decrease in turbidity of bacteria ([1]; added DMSO 5 %): 0.124 ± 0.006 O.D./10 minutes | Decrease in turbidity of bacteria ([1]; added DMSO 10 %): 0.094 ± 0.006 O.D./10 minutes | lysis (Staphylococcus aureus): lysed | enzymatic treatment determination (SE digested sample; lysostafin titer 0.1 U/mL): inadequate | enzymatic treatment determination (SE digested sample; lysostafin titer 1 U/mL): inadequate | enzymatic treatment determination (SE digested sample; lysostafin titer 10 U/mL): adequate | enzymatic treatment determination (SE digested sample; lysostafin titer 100 U/mL): adequate | enzymatic treatment determination (SE digested sample; lysostafin titer 1,000 U/mL): adequate | titer necessary for lysis (SE digested sample; lysis of Staphylococcus epidermidis): ≥ 10 unit/ml | enzymatic treatment determination (SA digested sample; lysostafin titer 0.1 U/mL): Inadequate | enzymatic treatment determination (SA digested sample; lysostafin titer 1 U/mL): adequate | enzymatic treatment determination (SA digested sample; lysostafin titer 10 U/mL): adequate | enzymatic treatment determination (SA digested sample; lysostafin titer 100 U/mL): adequate | enzymatic treatment determination (SA digested sample; lysostafin titer 1,000 U/mL): adequate | titer at which sufficient effects were exerted (SA digested sample; lysis of Staphylococcus aureus): 1 unit/ml
